Experimental data from the supplement of paper PMC4862054.

These compounds were tested on HDQ-P1 (assay: normalised response (% of control), CellTiter-Glo; higher = more viable cells (100 = DMSO, 0 = benzethonium chloride kill control)). Conditions: incubation time: 72 h.
Summary of the method: (§1)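 Two readouts were taken after 72 h: CellTox Green fluorescence (485/520 nm) first, then CellTiter-Glo luminescence after 10 min at room temperature. Breast cancer cell lines had been seeded as 20 µl suspension into 384-well plates holding compound at 5 concentrations in 10-fold steps across a compound-specific 10,000-fold range. Each value is a normalised signal at a single concentration, with plates scaled to 0.1 % DMSO (100) and a positive kill control (0).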

| SMILES | normalised response |
| --- | --- |
| CC(C)C[C@H](NC(=O)[C@H](Cc1ccccc1)NC(=O)c1cnccn1)B(O)O [Bortezomib] (10 nM) | 61.7% |
| CCOc1cc2ncc(C#N)c(Nc3ccc(OCc4ccccn4)c(Cl)c3)c2cc1NC(=O)/C=C/CN(C)C [Neratinib] (10 nM) | 83.5% |

What follows are compounds tested on BT-474 in the same assay as above. Conditions: incubation time: 72 h.
Summary of the method: as §1

| SMILES | normalised response |
| --- | --- |
| O=C(c1ccc(OCCN2CCCCC2)cc1)c1c(-c2ccc(O)cc2)sc2cc(O)ccc12 [Raloxifene] (100 nM) | 101% |
| CC(C)C[C@H](NC(=O)[C@H](Cc1ccccc1)NC(=O)c1cnccn1)B(O)O [Bortezomib] (10 nM) | 44.5% |
| CCOc1cc2ncc(C#N)c(Nc3ccc(OCc4ccccn4)c(Cl)c3)c2cc1NC(=O)/C=C/CN(C)C [Neratinib] (10 nM) | 101% |

What follows are compounds tested on MDA-MB-453 in the same assay as above. Conditions: incubation time: 72 h.
Summary of the method: as §1

| SMILES | normalised response |
| --- | --- |
| O=C(c1ccc(OCCN2CCCCC2)cc1)c1c(-c2ccc(O)cc2)sc2cc(O)ccc12 [Raloxifene] (100 nM) | 99.7% |
| CC(C)C[C@H](NC(=O)[C@H](Cc1ccccc1)NC(=O)c1cnccn1)B(O)O [Bortezomib] (10 nM) | 69.2% |
| CCOc1cc2ncc(C#N)c(Nc3ccc(OCc4ccccn4)c(Cl)c3)c2cc1NC(=O)/C=C/CN(C)C [Neratinib] (10 nM) | 78.3% |

The compounds below were run on HCC1143 in the same assay as above. Conditions: incubation time: 72 h.
Summary of the method: as §1

| SMILES | normalised response |
| --- | --- |
| O=C(c1ccc(OCCN2CCCCC2)cc1)c1c(-c2ccc(O)cc2)sc2cc(O)ccc12 [Raloxifene] (100 nM) | 109% |
| CC(C)C[C@H](NC(=O)[C@H](Cc1ccccc1)NC(=O)c1cnccn1)B(O)O [Bortezomib] (10 nM) | 74.7% |
| CCOc1cc2ncc(C#N)c(Nc3ccc(OCc4ccccn4)c(Cl)c3)c2cc1NC(=O)/C=C/CN(C)C [Neratinib] (10 nM) | 97.3% |

The compounds below were run on HCC1599 in the same assay as above. Conditions: incubation time: 72 h.
Summary of the method: as §1

| SMILES | normalised response |
| --- | --- |
| O=C(c1ccc(OCCN2CCCCC2)cc1)c1c(-c2ccc(O)cc2)sc2cc(O)ccc12 [Raloxifene] (100 nM) | 100% |
| CC(C)C[C@H](NC(=O)[C@H](Cc1ccccc1)NC(=O)c1cnccn1)B(O)O [Bortezomib] (10 nM) | 89.7% |
| CCOc1cc2ncc(C#N)c(Nc3ccc(OCc4ccccn4)c(Cl)c3)c2cc1NC(=O)/C=C/CN(C)C [Neratinib] (10 nM) | 112% |

What follows are compounds tested on MCF-10A in the same assay as above. Conditions: incubation time: 72 h.
Summary of the method: as §1

| SMILES | normalised response |
| --- | --- |
| O=C(c1ccc(OCCN2CCCCC2)cc1)c1c(-c2ccc(O)cc2)sc2cc(O)ccc12 [Raloxifene] (100 nM) | 103% |
| CC(C)C[C@H](NC(=O)[C@H](Cc1ccccc1)NC(=O)c1cnccn1)B(O)O [Bortezomib] (10 nM) | 113% |
| CCOc1cc2ncc(C#N)c(Nc3ccc(OCc4ccccn4)c(Cl)c3)c2cc1NC(=O)/C=C/CN(C)C [Neratinib] (10 nM) | 98.1% |

These compounds were tested on MDA-MB-468 in the same assay as above. Conditions: incubation time: 72 h.
Summary of the method: as §1

| SMILES | normalised response |
| --- | --- |
| O=C(c1ccc(OCCN2CCCCC2)cc1)c1c(-c2ccc(O)cc2)sc2cc(O)ccc12 [Raloxifene] (100 nM) | 98.7% |
| CC(C)C[C@H](NC(=O)[C@H](Cc1ccccc1)NC(=O)c1cnccn1)B(O)O [Bortezomib] (10 nM) | 2.63% |
| CCOc1cc2ncc(C#N)c(Nc3ccc(OCc4ccccn4)c(Cl)c3)c2cc1NC(=O)/C=C/CN(C)C [Neratinib] (10 nM) | 91.7% |

These compounds were tested on Hs578T in the same assay as above. Conditions: incubation time: 72 h.
Summary of the method: as §1

| SMILES | normalised response |
| --- | --- |
| O=C(c1ccc(OCCN2CCCCC2)cc1)c1c(-c2ccc(O)cc2)sc2cc(O)ccc12 [Raloxifene] (100 nM) | 106% |
| CC(C)C[C@H](NC(=O)[C@H](Cc1ccccc1)NC(=O)c1cnccn1)B(O)O [Bortezomib] (10 nM) | 66% |
| CCOc1cc2ncc(C#N)c(Nc3ccc(OCc4ccccn4)c(Cl)c3)c2cc1NC(=O)/C=C/CN(C)C [Neratinib] (10 nM) | 99.2% |

These compounds were tested on CAL-85-1 in the same assay as above. Conditions: incubation time: 72 h.
Summary of the method: as §1

| SMILES | normalised response |
| --- | --- |
| O=C(c1ccc(OCCN2CCCCC2)cc1)c1c(-c2ccc(O)cc2)sc2cc(O)ccc12 [Raloxifene] (100 nM) | 104% |
| CC(C)C[C@H](NC(=O)[C@H](Cc1ccccc1)NC(=O)c1cnccn1)B(O)O [Bortezomib] (10 nM) | 12.3% |
| CCOc1cc2ncc(C#N)c(Nc3ccc(OCc4ccccn4)c(Cl)c3)c2cc1NC(=O)/C=C/CN(C)C [Neratinib] (10 nM) | 102% |

Each compound was assayed on MDA-MB-231 in the same assay as above. Conditions: incubation time: 72 h.
Summary of the method: as §1

| SMILES | normalised response |
| --- | --- |
| O=C(c1ccc(OCCN2CCCCC2)cc1)c1c(-c2ccc(O)cc2)sc2cc(O)ccc12 [Raloxifene] (100 nM) | 105% |
| CC(C)C[C@H](NC(=O)[C@H](Cc1ccccc1)NC(=O)c1cnccn1)B(O)O [Bortezomib] (10 nM) | 69.3% |
| CCOc1cc2ncc(C#N)c(Nc3ccc(OCc4ccccn4)c(Cl)c3)c2cc1NC(=O)/C=C/CN(C)C [Neratinib] (10 nM) | 100% |

Each compound was assayed on BT-549 in the same assay as above. Conditions: incubation time: 72 h.
Summary of the method: as §1

| SMILES | normalised response |
| --- | --- |
| O=C(c1ccc(OCCN2CCCCC2)cc1)c1c(-c2ccc(O)cc2)sc2cc(O)ccc12 [Raloxifene] (100 nM) | 98.3% |
| CC(C)C[C@H](NC(=O)[C@H](Cc1ccccc1)NC(=O)c1cnccn1)B(O)O [Bortezomib] (10 nM) | 10.1% |
| CCOc1cc2ncc(C#N)c(Nc3ccc(OCc4ccccn4)c(Cl)c3)c2cc1NC(=O)/C=C/CN(C)C [Neratinib] (10 nM) | 97.9% |

What follows are compounds tested on MDA-MB-436 in the same assay as above. Conditions: incubation time: 72 h.
Summary of the method: as §1

| SMILES | normalised response |
| --- | --- |
| O=C(c1ccc(OCCN2CCCCC2)cc1)c1c(-c2ccc(O)cc2)sc2cc(O)ccc12 [Raloxifene] (100 nM) | 99.9% |
| CC(C)C[C@H](NC(=O)[C@H](Cc1ccccc1)NC(=O)c1cnccn1)B(O)O [Bortezomib] (10 nM) | 35.6% |
| CCOc1cc2ncc(C#N)c(Nc3ccc(OCc4ccccn4)c(Cl)c3)c2cc1NC(=O)/C=C/CN(C)C [Neratinib] (10 nM) | 99.7% |

Each compound was assayed on MFM-223 in the same assay as above. Conditions: incubation time: 72 h.
Summary of the method: as §1

| SMILES | normalised response |
| --- | --- |
| O=C(c1ccc(OCCN2CCCCC2)cc1)c1c(-c2ccc(O)cc2)sc2cc(O)ccc12 [Raloxifene] (100 nM) | 104% |
| CC(C)C[C@H](NC(=O)[C@H](Cc1ccccc1)NC(=O)c1cnccn1)B(O)O [Bortezomib] (10 nM) | 17.6% |
| CCOc1cc2ncc(C#N)c(Nc3ccc(OCc4ccccn4)c(Cl)c3)c2cc1NC(=O)/C=C/CN(C)C [Neratinib] (10 nM) | 101% |

The compounds below were run on CAL-51 in the same assay as above. Conditions: incubation time: 72 h.
Summary of the method: as §1

| SMILES | normalised response |
| --- | --- |
| O=C(c1ccc(OCCN2CCCCC2)cc1)c1c(-c2ccc(O)cc2)sc2cc(O)ccc12 [Raloxifene] (100 nM) | 87.8% |
| CC(C)C[C@H](NC(=O)[C@H](Cc1ccccc1)NC(=O)c1cnccn1)B(O)O [Bortezomib] (10 nM) | 96.8% |
| CCOc1cc2ncc(C#N)c(Nc3ccc(OCc4ccccn4)c(Cl)c3)c2cc1NC(=O)/C=C/CN(C)C [Neratinib] (10 nM) | 91.5% |

These compounds were tested on HCC1937 in the same assay as above. Conditions: incubation time: 72 h.
Summary of the method: as §1

| SMILES | normalised response |
| --- | --- |
| O=C(c1ccc(OCCN2CCCCC2)cc1)c1c(-c2ccc(O)cc2)sc2cc(O)ccc12 [Raloxifene] (100 nM) | 104% |
| CC(C)C[C@H](NC(=O)[C@H](Cc1ccccc1)NC(=O)c1cnccn1)B(O)O [Bortezomib] (10 nM) | 64.8% |
| CCOc1cc2ncc(C#N)c(Nc3ccc(OCc4ccccn4)c(Cl)c3)c2cc1NC(=O)/C=C/CN(C)C [Neratinib] (10 nM) | 95.1% |

These compounds were tested on CAL-148 in the same assay as above. Conditions: incubation time: 72 h.
Summary of the method: as §1

| SMILES | normalised response |
| --- | --- |
| O=C(c1ccc(OCCN2CCCCC2)cc1)c1c(-c2ccc(O)cc2)sc2cc(O)ccc12 [Raloxifene] (100 nM) | 107% |
| CC(C)C[C@H](NC(=O)[C@H](Cc1ccccc1)NC(=O)c1cnccn1)B(O)O [Bortezomib] (10 nM) | 98.8% |
| CCOc1cc2ncc(C#N)c(Nc3ccc(OCc4ccccn4)c(Cl)c3)c2cc1NC(=O)/C=C/CN(C)C [Neratinib] (10 nM) | 101% |

What follows are compounds tested on DU-4475 in the same assay as above. Conditions: incubation time: 72 h.
Summary of the method: as §1

| SMILES | normalised response |
| --- | --- |
| O=C(c1ccc(OCCN2CCCCC2)cc1)c1c(-c2ccc(O)cc2)sc2cc(O)ccc12 [Raloxifene] (100 nM) | 100% |
| CC(C)C[C@H](NC(=O)[C@H](Cc1ccccc1)NC(=O)c1cnccn1)B(O)O [Bortezomib] (10 nM) | 88.6% |
| CCOc1cc2ncc(C#N)c(Nc3ccc(OCc4ccccn4)c(Cl)c3)c2cc1NC(=O)/C=C/CN(C)C [Neratinib] (10 nM) | 105% |

The compounds below were run on SK-BR-3 in the same assay as above. Conditions: incubation time: 72 h.
Summary of the method: as §1

| SMILES | normalised response |
| --- | --- |
| O=C(c1ccc(OCCN2CCCCC2)cc1)c1c(-c2ccc(O)cc2)sc2cc(O)ccc12 [Raloxifene] (100 nM) | 104% |
| CC(C)C[C@H](NC(=O)[C@H](Cc1ccccc1)NC(=O)c1cnccn1)B(O)O [Bortezomib] (10 nM) | 30% |
| CCOc1cc2ncc(C#N)c(Nc3ccc(OCc4ccccn4)c(Cl)c3)c2cc1NC(=O)/C=C/CN(C)C [Neratinib] (10 nM) | 37.4% |

These compounds were tested on CAL-120 in the same assay as above. Conditions: incubation time: 72 h.
Summary of the method: as §1

| SMILES | normalised response |
| --- | --- |
| O=C(c1ccc(OCCN2CCCCC2)cc1)c1c(-c2ccc(O)cc2)sc2cc(O)ccc12 [Raloxifene] (100 nM) | 99.1% |
| CC(C)C[C@H](NC(=O)[C@H](Cc1ccccc1)NC(=O)c1cnccn1)B(O)O [Bortezomib] (10 nM) | 74.6% |
| CCOc1cc2ncc(C#N)c(Nc3ccc(OCc4ccccn4)c(Cl)c3)c2cc1NC(=O)/C=C/CN(C)C [Neratinib] (10 nM) | 104% |
